Reference: patent publication US20120004157A1, “HYDROXYPROLINE COMPOSITIONS AND USES THEREOF” (Bergen Teknologioverforing AS, priority 2007, published 2012)
“Also recorded” adds a separate entry of the source.

Assays:
psoriasis = conditions: Phase III psoriasis study, topical formulation; not statistically significant; cited from earlier work
[1] = Blood plasma levels of hydroxyproline in trout fed 90 days; assay type: in vivo; conditions: for blood plasma levels of Hydroxyproline: trout fed for 90 days, FIG. 2
Protocol: (§1) Trout were fed fish hydrolysate and fractions thereof to identify bioactive compounds (see Table 2).
The y axis is plasma levels in micromoles per 100 ml and the x-axis is the dietary level of component in g per kg diet.

[2] = Retention of dietary hydroxyproline in fish; assay type: in vivo; conditions: FIG. 1
Protocol: as §1
The experiments where fish were fed a diet including varying levels of hydroxyproline were performed as described above.
The retention of hydroxyproline is statistically correlated to the dietary level. Low dietary levels (0.8 g per kg diet) give retention of close to 100% while higher dietary levels (>4.5 g per kg diet) gives retention of 20-30%.

[3] = tested on: Atlantic salmon (Salmo salar); assay: 88 days growth experiment, growth and feed performance; assay type: in vivo; conditions: 88 days feeding
Source text: The diets used were composed such that they are equal in protein, lipid and energy, and designed to vary only in level of Hydroxyproline. The small amounts of Hydroxyproline added (L-4-Hydroksyproline, >99.0% pure, Fluka BioChemika. Sigma-Aldrich Chemie GmbH) were exchanged with fish meal, and the diets were otherwise adjusted with the content of raw wheat to secure equal chemical composition. Five different levels of Hydroxyproline were used in a regression design with two replicates for each level, except the diet without Hydroxyproline addition that was run in triplicate tanks. The levels used of hydroxyproline were 0, 0.7 gkg^−1, 1.4 gkg^−1, 2.8 gkg^−1 and 5.6 gkg^−1. As a negative control, Proline (L-Proline, (Hydroxy-L-Proline Free) Sigma grade, Sigma Chemical Company) was added to a level of 2.8 gkg^−1.
Atlantic salmon (Salmo salar) was obtained from Salmobreed May 2006. The fish was prevaccinated with Trippel Forte and was acclimated for 56 days before the trial started. The fish was given EWOS Opal Boost 50 3A, 3 mm pellets during this period. The fish was randomly distributed among 14 fiberglass tanks (1.5×1.5×1 m^3) with 80 fish per tank. Diet 1 and Diet 6 were run in triplicate tanks. Diet 2, Diet 3, Diet 4 and Diet 5 was run in duplicate tanks. Data are given also for a fish meal diet with no plant protein included. This diet was run simultaneously with fish of the same size, origin and treatment. This diet (Diet 7) was run in 2 m×2 m×1 m tanks in triplicate in a parallel experiment. The tanks were supplied with 75 I min^−1 of seawater taken from a depth of 50 m with average salinity of 3.2-3.3%. Water temperature was kept constant at 10.4±0.4° C. during the acclimatization and the experimental period, using a heat exchanger to adjust the sea water temperature. Throughout the experimental period of 88 days, the fish were exposed to 24 h artificial light. Great care was taken to reduce disturbance from the environment. Automatic feeders were used to add feed from 05.00 to 08.00 hrs and from 14.00 to 03.00 hrs. The level of feeding was regulated in such a way that offered feed was 110% of expected consumption based on daily monitoring of wasted feed. Uneaten feed was continuously removed by automatic collection and separated from feces using an Excess Fishfeed Collector (Holland Teknologi, Norway). Feed intake was measured daily as the difference between total feed given and total uneaten feed collected. Feed intake for the total experimental period was measured as the sum of the daily feed intakes, divided by feeding days and average fish weight during the experimental period; (start weight+final weight)/2. Feeding was sustained until the fish was sampled for analyses.
The six experimental diets were randomly assigned to the 14 tanks, with 3 replicate tanks for Diet 1 and Diet 6 and to duplicate tanks for the other experimental diets. Initial fish weights and lengths were recorded. Twenty fish representing the weight ranges were sampled, killed by a blow on the head, frozen and kept at −80° C. pending analyses of fish at start. Final weights were determined for each fish in all tanks. At the end of the feeding period, the fish were anaesthetized with Eugonol (iso-eugunol was diluted 1:1 with ethanol and the diluted solution was added 15 ml per m^3 water in the tanks). After about 15 min, 10 fish from each tank were sampled, killed by a blow in the head, gutted and weight of slaughtered fish, liver and viscera were noted. Five other fish from each tank were pooled and frozen for pending analyses.
The 88 days growth experiment was run successfully with a thermal growth coefficient (TGC) of 2.5 for the fish meal control diet. Some loss of fish occurred during the experimental period and some fish seemed not to develop normally. […]

[4] = tested on: Atlantic salmon (Salmo salar); assay: Subjective scoring of wounds on skin, damage on dorsal fin and loss of shells; assay type: in vivo; conditions: scale from 0 (no damage) to 5 (severe damages), 88 days feeding, Diets 2-5 = 0.7, 1.4, 2.8, 5.6 gkg−1 added hydroxyproline, mean ± SD
Protocol: Wounds on skin, damages on dorsal fin and loss of shells were evaluated in the 10 salmons from each tank. The measure was subjectively based on a scale from 0 (no damage) to 5 (severe damages). The data and statistics are included in the table below (based on 110 measures) and shown in the figure based on average values for each tank). The statistics given are based on linear regression. […] (Table 3 and FIGS. 5, 6 and 7)

[5] = added hydroxyproline gkg−1: Diet 2 0.7, Diet 3 1.4, Diet 4 2.8, Diet 5 5.6, mean ± SD
[6] = at 2.9 gkg−1 added Hydroxyproline

SMILES	greater improvement in mean lesion scores in the treated group compared to placebos (psoriasis)	dietary level above which the negative effects are eliminated ([1]; from retention, plasma and tissue data)	blood plasma levels of Hydroxyproline ([1]; dietary level 0.8 g per kg)	blood plasma levels of Hydroxyproline ([1]; dietary levels >4 g per kg)	retention of Hydroxyproline in the fish ([2]; higher dietary levels (>4.5 g per kg diet))	retention of Hydroxyproline in the fish ([2]; low dietary levels (0.8 g per kg diet))	nutritional requirement indicated by the growth curve [3]	Body weight at end, g [3, 5]	Weight gain, g/fish [3, 5]	increase of weight gain compared with no Hydroxyproline added (Diet 1) [3, 6]	weight gain at the maximum of the regression equation [3, 6]	added Hydroxyproline at maximum of the weight gain regression equation ([3]; polynomial regression, n=11)	SGR ([3]; specific growth rate, Diets 2-5 = 0.7, 1.4, 2.8, 5.6 gkg−1 added hydroxyproline, mean ± SD)	TGC ([3]; thermal growth coefficient, Diets 2-5 = 0.7, 1.4, 2.8, 5.6 gkg−1 added hydroxyproline, mean ± SD)	Damage on dorsal fin [4]	Loss of shells [4]	Wounds on skin [4]
Nc1nc2c(Cc3cccnc3)c[nH]c2c(=O)[nH]1 [BCX-34]	14%																
O=C(O)[C@@H]1C[C@@H](O)CN1 [Hydroxyproline, L-4-Hydroksyproline]		3-4 g per kg diet	much lower than previously known (normal values); also recorded: much lower than earlier published (normal values)	very high plasma levels	20-30%	~100%	2.5-3 g per kg diet	growth promoting effect	growth promoting effect	14.0%	155 g	2.9 gkg−1	growth promoting effect	growth promoting effect	lesser degree of damage to the dorsal fin	lower levels of fish scale loss	lesser degree of wounding
